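Growth conditions: 96-well plates. Treatment: test compound, 48 hours, 5 concentrations. Analysis: linear interpolation between bracketing concentrations; unreached endpoints set to highest concentration. GI50 is the concentration that inhibits growth by half.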 Active and inactive are the calls of the source. Rule as the data show it: active = GI50 up to about 1.1 µM and inactive = higher.
Legend:
Assay in all cases: inhibition of tumour cell growth, NCI panel, 48 h
[1] = test system: HCT-116
[2] = test system: DLD-1
[3] = test system: SNB-75
[4] = test system: CCRF-CEM
[5] = test system: SW-620
[6] = test system: NCI-H23
[7] = test system: KM-20L2
[8] = test system: A549
[9] = test system: LXFL 529
[10] = test system: NCI-H226
[11] = test system: 786-0
[12] = test system: UACC-257
[13] = test system: Malme-3M
[14] = test system: SK-OV-3
[15] = test system: NCI-H522
[16] = test system: SNB-19
[17] = test system: SF-295
[18] = test system: EKVX
[19] = test system: SF-268
[20] = test system: OVCAR-5
[21] = test system: SF-539
[22] = test system: SN12C
[23] = test system: M19-MEL
[24] = test system: COLO 205
[25] = test system: SK-MEL-28
[26] = test system: RPMI-8226
[27] = test system: OVCAR-4
[28] = test system: RXF 393
[29] = test system: UACC-62
[30] = test system: TK-10
[31] = test system: HCC 2998
[32] = test system: KM12
[33] = test system: U-251
[34] = test system: LOX IMVI
[35] = test system: K562
[36] = test system: A498
[37] = test system: HOP-18
[38] = test system: HOP-92
[39] = test system: SR
[40] = test system: DMS-114
[41] = test system: UO-31
[42] = test system: ACHN
[43] = test system: SNB-78
[44] = test system: NCI-H460
[45] = test system: HOP-62
[46] = test system: HT-29
[47] = test system: XF498
[48] = test system: OVCAR-3
[49] = test system: IGROV-1
[50] = test system: SK-MEL-5
[51] = test system: CAKI-1
[52] = test system: MOLT-4
[53] = test system: M14
[54] = test system: HCT-15
[55] = test system: OVCAR-8
[56] = test system: SK-MEL-2
[57] = test system: DMS-273
[58] = test system: HL-60

For `Nc1nnc(NC(=O)C2=NS(=O)(=O)c3cc(S(N)(=O)=O)c(Cl)cc3N2)[nH]1`, the GI50 [1] was > 100 µM (inactive), the GI50 [2] was > 100 µM (inactive) and the GI50 [3] was > 100 µM (inactive). The GI50 [4] was > 100 µM (inactive), the GI50 [5] was > 100 µM (inactive) and the GI50 [6] was > 100 µM (inactive). The GI50 [7] was > 100 µM (inactive), the GI50 [8] was > 100 µM (inactive) and the GI50 [9] was > 100 µM (inactive). The GI50 [10] was > 100 µM (inactive), the GI50 [11] was > 100 µM (inactive) and the GI50 [12] was > 100 µM (inactive). The GI50 [13] was > 100 µM (inactive), the GI50 [14] was > 100 µM (inactive) and the GI50 [15] was > 100 µM (inactive). The GI50 [16] was > 100 µM (inactive), the GI50 [17] was > 100 µM (inactive) and the GI50 [18] was > 100 µM (inactive). The GI50 [19] was > 100 µM (inactive), the GI50 [20] was > 100 µM (inactive) and the GI50 [21] was > 100 µM (inactive). For the same compound, the GI50 [22] was > 100 µM (inactive), the GI50 [23] was > 100 µM (inactive) and the GI50 [24] was > 100 µM (inactive). For the same compound, the GI50 [25] was > 100 µM (inactive), the GI50 [26] was > 100 µM (inactive) and the GI50 [27] was > 100 µM (inactive). The GI50 [28] was > 100 µM (inactive), the GI50 [29] was > 100 µM (inactive) and the GI50 [30] was > 100 µM (inactive). For the same compound, the GI50 [31] was 0.752 µM (active), the GI50 [32] was > 100 µM (inactive) and the GI50 [33] was > 100 µM (inactive). For the same compound, the GI50 [34] was > 100 µM (inactive), the GI50 [35] was > 100 µM (inactive) and the GI50 [36] was > 100 µM (inactive). For the same compound, the GI50 [37] was > 100 µM (inactive), the GI50 [38] was > 100 µM (inactive) and the GI50 [39] was > 100 µM (inactive). The GI50 [40] was > 100 µM (inactive), the GI50 [41] was > 100 µM (inactive) and the GI50 [42] was > 100 µM (inactive). The GI50 [43] was > 100 µM (inactive), the GI50 [44] was > 100 µM (inactive) and the GI50 [45] was > 100 µM (inactive). For the same compound, the GI50 [46] was > 100 µM (inactive), the GI50 [47] was > 100 µM (inactive) and the GI50 [48] was > 100 µM (inactive). The GI50 [49] was > 100 µM (inactive), the GI50 [50] was > 100 µM (inactive) and the GI50 [51] was > 100 µM (inactive). The GI50 [52] was > 100 µM (inactive), the GI50 [53] was > 100 µM (inactive) and the GI50 [54] was greater than 100 µM.
For `COc1ccc(Nc2nc3c(N)cc(C(F)(F)F)cc3nc2-c2ccccc2)cc1OC`, the GI50 [55] was 15.1 µM (inactive), the GI50 [1] was 25.6 µM (inactive) and the GI50 [2] was 22.7 µM (inactive). For the same compound, the GI50 [3] was 4.85 µM (inactive), the GI50 [4] was > 100 µM (inactive) and the GI50 [5] was 57.4 µM (inactive). For the same compound, the GI50 [6] was 32.9 µM (inactive), the GI50 [7] was 36.9 µM (inactive) and the GI50 [8] was 22 µM (inactive). For the same compound, the GI50 [9] was 15.3 µM (inactive), the GI50 [10] was 24.2 µM (inactive) and the GI50 [56] was 22 µM (inactive). The GI50 [11] was 12.4 µM (inactive), the GI50 [12] was 27.2 µM (inactive) and the GI50 [13] was 16.4 µM (inactive). For the same compound, the GI50 [14] was 12.7 µM (inactive), the GI50 [15] was 15.6 µM (inactive) and the GI50 [16] was 19.8 µM (inactive). The GI50 [17] was 19.7 µM (inactive), the GI50 [18] was 18.5 µM (inactive) and the GI50 [19] was 16.5 µM (inactive). The GI50 [20] was 64.7 µM (inactive), the GI50 [21] was 18.2 µM (inactive) and the GI50 [22] was 20.2 µM (inactive). For the same compound, the GI50 [23] was 22.5 µM (inactive), the GI50 [24] was 55.7 µM (inactive) and the GI50 [25] was 26.2 µM (inactive). For the same compound, the GI50 [27] was 11.9 µM (inactive), the GI50 [57] was 33.5 µM (inactive) and the GI50 [28] was 25.7 µM (inactive). For the same compound, the GI50 [58] was 8.63 µM (inactive), the GI50 [29] was 19.7 µM (inactive) and the GI50 [30] was 21.3 µM (inactive). For the same compound, the GI50 [31] was 24.1 µM (inactive), the GI50 [32] was 29.3 µM (inactive) and the GI50 [33] was 11.3 µM (inactive). For the same compound, the GI50 [34] was 40.6 µM (inactive), the GI50 [35] was 63 µM (inactive) and the GI50 [36] was 31.8 µM (inactive). For the same compound, the GI50 [37] was 13.7 µM (inactive), the GI50 [38] was 20.5 µM (inactive) and the GI50 [39] was 92.7 µM (inactive). For the same compound, the GI50 [41] was 30.3 µM (inactive), the GI50 [42] was 12.8 µM (inactive) and the GI50 [43] was 28.3 µM (inactive). The GI50 [44] was 27.3 µM (inactive), the GI50 [45] was 24.9 µM (inactive) and the GI50 [47] was 14.8 µM (inactive). For the same compound, the GI50 [48] was 18.8 µM (inactive), the GI50 [49] was 22.3 µM (inactive) and the GI50 [50] was 20.4 µM (inactive). For the same compound, the GI50 [51] was 22.6 µM (inactive), the GI50 [52] was 66.7 µM (inactive) and the GI50 [53] was 28.6 µM (inactive). The GI50 [54] was 33.4 µM.
